# Assay results published in US6913892B1, “Method of obtaining compositions comprising Y4 specific compounds” (H. Lundbeck A/S, priority 1993, dated 2005).
# Columns and labels:
# [1] = target: Y3 receptor; details: Table 1, rank orders from published reports; cited from earlier work
# [2] = target: T1, Y1 receptor (Homo sapiens, UniProt P25929); details: Table 1, rank orders from published reports; cited from earlier work
# T1 sequence (P25929 1-384): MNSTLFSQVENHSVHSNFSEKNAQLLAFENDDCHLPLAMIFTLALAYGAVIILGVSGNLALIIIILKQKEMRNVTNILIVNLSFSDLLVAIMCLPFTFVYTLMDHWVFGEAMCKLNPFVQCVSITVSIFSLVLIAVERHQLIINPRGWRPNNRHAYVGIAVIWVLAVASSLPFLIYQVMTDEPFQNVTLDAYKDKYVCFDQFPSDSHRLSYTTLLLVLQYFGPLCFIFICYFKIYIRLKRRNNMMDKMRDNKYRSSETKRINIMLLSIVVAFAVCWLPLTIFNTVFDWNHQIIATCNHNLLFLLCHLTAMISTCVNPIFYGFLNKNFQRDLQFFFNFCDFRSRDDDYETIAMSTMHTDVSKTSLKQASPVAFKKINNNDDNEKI
# [3] = target: T2, human hp25a (Y4) receptor (Homo sapiens, UniProt P50391); assay: Competitive displacement / binding of 125I-PYY, membranes of COS-7 cells transiently expressing hp25a (human Y4) receptors
# T2 construct: The entire coding region of hp25a (1127 bp); expressed in transfected cells; host or cells: COS-7
# Method: (§1) Cell culture: COS-7 cells were grown on 150 mm plates (Corning) in D-MEM with supplements (Dulbecco's Modified Eagle Medium with 10% bovine calf serum, 2 mM glutamine, 100 units/ml penicillin/80 units/ml streptomycin) at 37° C., 5% CO2.
# Membrane Harvest: Membranes were harvested from COS-7 cells 48 hours after transfection and from SK-N-Be(2) seven days after splitting. […] Large particles and debris were cleared by low speed centrifugation (200×g, 10 min, 4° C.).
# (§2) Radioligand Binding to Membrane Suspensions: Membrane suspensions were diluted in binding buffer supplemented with 0.1% bovine serum albumin and 0.1% bacitracin to yield an optimal membrane protein concentration: ˜0.02 mg/ml for human Y1 receptors, ˜0.015 mg/ml for hp25a receptors, and ˜0.25 mg/ml for SK-N-Be(2). […] Incubations were terminated by filtration over Whatman GF/C filters (pre-coated with 0.5% polyethyleneimine and air-dried before use). […] Specific binding in time course and competition studies was typically 80%; most non-specific binding was associated with the filter.
# [4] = target: T1, Y1 receptor; assay: Competitive displacement / binding of 125I-PYY, membranes of COS-7 cells transiently expressing human Y1 receptors; design: expressed in transfected cells; host or cells: COS-7
# Method: as §1
# Membrane Harvest: Membranes were harvested from COS-7 cells 48 hours after transfection and from SK-N-Be(2) seven days after splitting.
# as §2
# [5] = test system: PYY-preferring receptor; details: Laburthe et al., 1986, 1990; cited from earlier work
# [6] = target: PP receptor; details: Table 1, rank orders from published reports; cited from earlier work
# [7] = N-terminal deletion of porcine NPY
# T2 sequence (P50391 whole entry): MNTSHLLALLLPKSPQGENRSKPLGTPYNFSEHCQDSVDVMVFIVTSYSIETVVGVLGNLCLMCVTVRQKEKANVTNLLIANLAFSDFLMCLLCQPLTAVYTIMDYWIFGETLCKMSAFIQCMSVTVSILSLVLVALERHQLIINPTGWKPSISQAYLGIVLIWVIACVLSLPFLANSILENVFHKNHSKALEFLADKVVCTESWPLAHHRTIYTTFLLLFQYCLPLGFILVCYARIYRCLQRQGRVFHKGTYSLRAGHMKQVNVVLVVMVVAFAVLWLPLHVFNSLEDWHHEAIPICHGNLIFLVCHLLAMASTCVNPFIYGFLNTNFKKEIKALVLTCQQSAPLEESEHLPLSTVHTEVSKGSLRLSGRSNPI
substance,measurement,setting,value
[Pro^34]NPY: NPY analog with Pro34 (Table 1),"Affinity (−pKi or −pEC50), Y3",[1],9 to 8
"NPY2-36: NPY fragment 2-36, species not stated (Table 1)","Affinity (−pKi or −pEC50), Y1",[2],9 to 8
"NPY13-36: NPY carboxyl-terminal fragment 13-36, species not stated; b153 folds follow porcine data","decrease in affinity compared with full length parent peptide, hp25a",[3]; [7],33 fold
same,"decrease in affinity compared with full length parent peptide, human Y1 receptors",[4]; [7],1000 fold
"PYY: peptide YY, species not stated at the place","Affinity (−pKi or −pEC50), Y3",[1],<6
same,higher affinity for PYY than for NPY,[5],5-10 fold
"[LEU^31, Pro^34]NPY: analog of NPY modified at residues 31 and 34, species not stated (Table 1)","Affinity (−pKi or −pEC50), PP",[6],9 to 8
Neuropeptide Y [NPY],"Affinity (−pKi or −pEC50), Y3",[1],10 to 9
same,"Affinity (−pKi or −pEC50), PP",[6],<6
^125I-PYY,observed association rate (Kobs),"[3]; hp25a, 0.06 nM 125I-PYY",0.12 ± 0.02 min⁻¹
same,observed association rate (Kobs),[4]; human Y1 in COS-7,0.06 ± 0.02 min⁻¹
